# From PMC3717777 (Toxins, 2013)
# “Also recorded” adds a separate entry of the source. Where two headings read alike, the source gives them in different places.
# Legend:
# [1] = Solid phase microtitre plate binding assay with ochratoxin A-HRP; details: ochratoxin A-HRP serial dilutions, PBS pH 7.4, 1.5 h, room temperature, A 450 nm; for binding of ochratoxin A-HRP, amine-coupled peptide: amine coupling (NHS/EDC); for binding of ochratoxin A-HRP, thiol-coupled peptide: thiol coupling (SPDP)
# Description: Solid phase binding assay provides a platform to test the binding capacity of the designed peptides to ochratoxin A in vitro. Each peptide sequence was immobilized to the surface of a functionally modified (R2-NH) microtitre plate via either amine coupling using N-hydroxysuccinimide (NHS)/N-(3-dimethylaminopropyl)-N'-ethylcarbodiimide (EDC) coupling chemistry or thiol coupling using a heterobifunctional crosslinker (N-Succinimidyl 3-(2-pyridyldithio) propionate (SPDP)) employing the terminal cysteine residues of the peptide sequences to allow for site-directed surface attachment. Enzyme-labelled ochratoxin A-HRP was added in a concentration-dependent manner to the immobilized peptides, and the absorbance signal (blank subtracted) was compared for both peptides and immobilization techniques, as shown in Figure 3.
# To test the initial binding of the peptides with ochratoxin A, the peptides were immobilized to a (NH)-functionally modified polystyrene microtitre plate via: (1) amine-coupling using a NHS/EDC linker and (2) thiol-coupling using SPDP, a hetero-bifunctional cross-linker reagent with amine and sulfhydryl groups.
# Amine coupling was performed as follows: 100 mg L^−1 of each peptide solution in 10 mM carbonate buffer pH 9.6 was incubated on the NH-wells for 30 min, then 200 mM EDC and 50 mM NHS (1:1 v/v) were added and incubated for one hour. The plates were washed using PBST and blocked using 0.1 M ethanolamine for 30 min. Thiol coupling was performed via the immobilization of 1.5 mg mL^−1 SPDP in phosphate buffer (PBS) pH 7.4 incubated for 30 min at room temperature. The peptides were added at 100 mg L^−1 in a phosphate buffer pH 8.0 and incubated for another two hours at room temperature. The plates were washed using PBST and blocked for one hour using 1 g L^−1 cysteine in 1 M NaCl and 0.1 M sodium acetate, pH 4.0.
# The binding of ochratoxin A-HRP conjugate in phosphate buffer pH 7.4 was performed at decreasing serial dilutions and incubated with the immobilized peptides for 1.5 h. The zero reference was determined with ochratoxin-HRP alone on 0.1 M ethanolamine blocked wells without immobilized peptide. All incubations were performed at room temperature. Detection was performed, after washing the microtiter plates using PBST, with the chromogenic HRP-substrate TMB in ready-made solution containing hydrogen peroxide. The absorbance was read after 20 min at 450 nm.
# [2] = SPR (Biacore 3000) binding of ochratoxin A-BSA to immobilised peptide or antibody; details: for Kd: Biacore 3000, CM5 chip, peptide immobilised by amine coupling, ochratoxin A-BSA 0.01–100 mg L^−1, HBS-EP pH 7.4, 25 °C, 1:1 Langmuir model, estimated; for on and off rates: Biacore 3000, ochratoxin A-BSA over immobilised ligand; for on and off rates / binding affinity (in words): HBS-EP pH 7.4, 25 °C; for binding affinity (in words): Biacore 3000, ochratoxin A-BSA
# Description: (§1) To determine affinities for the peptide binding interaction, the peptides were immobilized on two adjacent flow cells onto a CM5 Biacore chip to a level of 251 RU (octapeptide) and 227 RU (13-mer peptide). This was in order to study the binding interaction between the peptides and ochratoxin A using a Biacore 3000. A commercial ochratoxin A-BSA conjugate was used as the analyte to obtain a significant signal response for a binding event. Initially, one saturating concentration of ochratoxin A-BSA conjugate (100 mg L^−1) was injected over each immobilized peptide ligand to confirm binding (Figure 4).
# To establish the affinity of the interaction, decreasing ochratoxin A-BSA concentrations were injected onto the immobilized peptides surfaces (Figure 5).
# The binding interaction analysis of the peptide receptor with ochratoxin A was carried out on a CM5 (carboxymethylated dextran) sensor chip at 25 °C. HBS-EP (0.01 M HEPES pH 7.4, 0.15 M NaCl, 3 mM EDTA, 0.005% Surfactant P20) was used as the running and dilution buffer. Peptides (100 mg L^−1 in 10 mM acetate buffer, pH 4.5) were immobilised using 0.4 M N-(3-dimethylaminopropyl)-N'-ethylcarbodiimide (EDC) and 0.1 M N-hydroxysuccinimide (NHS), applying amine coupling chemistry. In brief, a 1:1 mixture of NHS and EDC was injected as 5 μL min^−1 flow rate for 7 min, followed by injection of 75 µL peptide ligand (5 µL min^−1) for 15 min and blocking of residual binding sites with 1 M Ethanolamine, pH 8.3 (35 µL). To establish binding kinetics, various concentrations of ochratoxin A-BSA conjugate (0.01–100 mg L^−1, 60 µL in HBS-EP pH 7.4) were injected at 5 µL min^−1 over each immobilised peptide surface. BSA alone was injected as non-specific analyte control. Dissociation was monitored during 10 min without dissociating agents (flowing only running buffer). The kinetic parameters of the binding reactions were determined using BIAevaluation 3.2 software.
# [3] = tested on: BSA; assay: SPR (Biacore 3000) non-specific binding control with BSA alone; details: immobilised peptide, BSA alone 100 mg L^−1
# Description: as §1
# Immobilization methods, especially via amine coupling, can reduce the activity of the immobilized molecule and, thus, have reduced binding capacity, which can be substantially different from the theoretical binding capacity. This is a common and known problem in binding interaction analysis. […]
# The binding interaction analysis of the peptide receptor with ochratoxin A was carried out on a CM5 (carboxymethylated dextran) sensor chip at 25 °C. […] Dissociation was monitored during 10 min without dissociating agents (flowing only running buffer). The kinetic parameters of the binding reactions were determined using BIAevaluation 3.2 software.
# [4] = Water solubility of synthesized peptides; format: physicochemical
# [5] = combinatorial peptide-phage display library; cited from earlier work
# [6] = molecular target: (human) albumin; details: ochratoxin A to (human) albumin, ref [45], cited from earlier work
# [7] = read-out: binding constant KD, aflatoxin B1; cited from earlier work
# [8] = read-out: binding constant KD, aflatoxin B2; cited from earlier work
Compound,"binding of ochratoxin A-HRP, amine-coupled peptide [1]","binding of ochratoxin A-HRP, thiol-coupled peptide [1]",Kd [2] [µM],on and off rates [2],binding affinity (in words) [2],non-specific binding to unconjugated BSA [3],water solubility [4],further results
N'-Gly-Pro-Ala-Gly-Ile-Asp-Gly-Pro-Ala-Gly-Ile-Arg-Cys-C' [13-mer peptide],decreased,good binding capacity,15.7,fast on and off rates; also recorded: faster on and off rates,weak binding affinity,no non-specific binding,water soluble,binding affinity (in words) ([2]; listed as 13-mer): weak affinity interactions
N'-Ser-Asn-Leu-His-Pro-Lys-C',–,–,–,–,–,–,–,Kd [5]: ~2.9 µM
C[C@@H]1Cc2c(Cl)cc(C(=O)N[C@@H](Cc3ccccc3)C(=O)O)c(O)c2C(=O)O1 [ochratoxin A],–,–,–,–,–,–,–,"Kd ([6]; high affinity binding sites, read-out: KD, high affinity binding site): ~0.019 µM; Kd ([6]; weak affinity sites, read-out: KD, weak affinity site): ~1 µM"
N'-Cys-Ser-Ile-Val-Glu-Asp-Gly-Lys-C' [octapeptide],ochratoxin A-HRP binds,much higher binding signals,11.8,fast on and off rates,weak affinity interactions; also recorded: weak binding affinity,no non-specific binding,water soluble,–
Leu-Leu-Ala-Arg-NH2,–,–,–,–,–,–,–,Kd [7]: ~8.3 µM; Kd [8]: ~3.4 µM
